{"source": "paper PMC10575921", "about": "(Nature Communications, 2023)", "note": "Where “and” joins values, the source holds several entries; their conditions need not be identical. Equal entries are not always repeated."}
{"target": "SARS-CoV-2 3CL^pro C145G (Severe acute respiratory syndrome coronavirus 2, UniProt P0DTD1, C3408G)", "format": "binding"}
{"smiles": "CC(C)(C)NC(=O)N[C@H](C(=O)N1C[C@H]2[C@@H]([C@H]1C(=O)N[C@H](C#N)C[C@@H]1CCNC1=O)C2(C)C)C(C)(C)C", "note": "[compound 2]", "-TΔS": "-25.01 ± 0.42 kJ/mol and -25.01 kJ/mol"}
{"smiles": "CC(C)(C)NC(=O)N[C@H](C(=O)N1CC2(C[C@H]1C(=O)N[C@H](C#N)C[C@@H]1CCNC1=O)SCCS2)C(C)(C)C", "note": "[compound 7]", "-TΔS": "-20.16 ± 1.12 kJ/mol and -20.16 kJ/mol"}
{"smiles": "CC(C)(C)[C@H](NC(=O)C1(F)CC1)C(=O)N1CC2(C[C@H]1C(=O)N[C@H](C#N)C[C@@H]1CCNC1=O)SCCS2", "note": "[compound 10]", "-TΔS": "-9.14 ± 2.35 kJ/mol and -9.14 kJ/mol"}
{"smiles": "CC(C)(C)[C@H](NS(C)(=O)=O)C(=O)N1CC2(C[C@H]1C(=O)N[C@H](C#N)C[C@@H]1CCNC1=O)SCCS2", "note": "[compound 11]", "-TΔS": "-14.89 ± 1.39 kJ/mol and -14.89 kJ/mol"}
{"smiles": "CC(C)(C)[C@H](NS(=O)(=O)C1CC1)C(=O)N1CC2(C[C@H]1C(=O)N[C@H](C#N)C[C@@H]1CCNC1=O)SCCS2", "note": "[compound 12]", "-TΔS": "-4.96 ± 1.36 kJ/mol and -4.96 kJ/mol"}
